The source of these data is patent US12187728B2 (Raze Therapeutics, Inc., priority 2015, dated 2025).

The target of this experiment is T1, Human MTHFD2 (Homo sapiens, UniProt P13995).
T1 construct: residues 36-350 in Uniport ID P13995; His6 (N); made in house; host or cells: E. coli
T1 sequence (P13995 36-350): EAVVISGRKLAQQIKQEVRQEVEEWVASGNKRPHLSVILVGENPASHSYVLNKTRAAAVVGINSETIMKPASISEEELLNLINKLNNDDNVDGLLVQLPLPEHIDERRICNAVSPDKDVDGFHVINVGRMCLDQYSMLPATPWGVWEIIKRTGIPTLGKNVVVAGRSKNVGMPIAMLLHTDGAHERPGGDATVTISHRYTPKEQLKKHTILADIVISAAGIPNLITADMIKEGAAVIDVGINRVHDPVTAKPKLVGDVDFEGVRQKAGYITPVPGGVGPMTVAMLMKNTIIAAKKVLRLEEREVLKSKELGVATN
As to the kind of experiment: MTHFD2 Activity Assay (dehydrogenase activity, diaphorase/resazurin coupled fluorescence). The class given is biochemical. The settings on record: inhibitory activity (IC50 and/or binding constant); 0.2 nM MTHFD2, 11 concentrations. The procedure, abridged:
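Steps: compound + 0.2 nM enzyme, 15 min, pH 8.0 Hepes buffer; add 70 μM CH2-THF, 1 mM NAD+, 100 μM resazurin, diaphorase; 30 min; quench with EDTA; read fluorescence. Data normalized to DMSO (100%) and no-enzyme (0%) wells.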
(In general: Alamar Blue is a resazurin reagent that responds to reducing activity.)

Broadly, the IC50 is the concentration that inhibits the measured activity by half. A high value points to weaker potency. The molecule `Cn1c(N[C@H]2CC[C@@H](O)C2)nc2c1c(=O)n(Cc1ccc(Cl)c(Cl)c1)c(=O)n2C` (single isomer, unassigned) [Example 71, 1-(3,4-dichlorobenzyl)-8-((1S,3R)-3-hydroxycyclopentylamino)-3,7-dimethyl-1H-purine-2,6(3H,7H)-dione or 1-(3,4-dichlorobenzyl)-8-((1R,3S)-3-hydroxycyclopentylamino)-3,7-dimethyl-1H-purine-2,6(3H,7H)-dione] came in with an IC50 of 10 to 1000 nM.
